Key:
[1] = 50 μM/500 μM of FeSO4:H2O2, 10 μM dye
[2] = tested on: rat skin; assay: Delivery of Cy5-PEG/Cy3-PEG microneedle tattoo to the shaved skin of living rats; type: in vivo; settings: MN delivery, fluorescence stereomicroscopy several hours after application
[3] = tested on: inflammatory filaggrin-deficient (FLG-) skin model; assay: H-Cy5-PEG/Cy7.5-PEG microneedle tattoo in human-based atopic skin model; type: cell-based; settings: human-based atopic model of skin inflammation, 20 minutes
Protocol: To provide the proof of concept for our approach and to validate the potential use of a medical tattoo in a biological system, the sensing properties of the generated MNs were tested in human-based inflammatory skin model that closely emulates characteristics of atopic skin in vitro^[76] and has been previously verified for the presence of disease-relevant ROS.^[77] This model has been extensively characterized in previous work showing excellent correlation with atopic skin in vivo.^[76,78,79] The skin model is based on a filaggrin knockdown, as filaggrin mutations are a major pre-disposing factor for AD.^[80] […] Cy7.5 was selected based on its structural similarity to Cy5 and other cyanines, displaying similar physicochemical properties and allowing PEGylation in the same manner as Cy5, as well as its NIR fluorescence (λex=788 nm; λem=808 nm), optimal for visibility in the skin. […]
The MNs rapidly dissolved within 2 minutes, after which the backing layer was carefully removed. The fluorescence intensities of the sensor and reference dye in the skin models were determined using an IVIS Lumina II imaging system (Perkin Elmer) at 0, 5, 15 and 20 mins after MN application. […] The fluorescence signal for each model was assessed by selecting a region of interest (ROI) and by the signal-to-noise ratio (Cy5 ROI/Cy7.5 ROI).

[4] = Reoxidation of H-Cy5-PEG/Cy7.5-PEG microneedle tattoo in excised porcine skin; settings: H2O2 (100 mM) or Fenton's reagent (40 μM/400 μM), portable fluorescence reader
Protocol: Microneedle tattoos containing both the sensor and reference dye were delivered ex vivo to excised porcine skin that had been treated with either distilled water (control), or a source of ROS—either H2O2 (100 mM) or Fenton's reagent (40 μM/400 μM).
Excised porcine skin was obtained and shaved using a manual blade razor to remove any hair. The skin was permeabilized using a 1.0 mm dermaroller (DermaRollerSystem.com, Markham, ON), 200 μL of either distilled H2O, 100 mM H2O2, or Fenton's Reagent (40 μM FeSO4/400 μM H2O2) was added and allowed to soak into the skin for 20 minutes, after which any excess was removed with a paper towel. […] After removal of the MN backing layer, the fluorescence of the application site was measured with the portable fluorescence reader, using both the Cy5 and Cy7.5 filters (Cy5: λex=638 nm, λem=668-702 nm; Cy7.5: λex=782 nm, λem=810-840 nm). For each MN application, 3 measurements were recorded at each wavelength.

[5] = tested on: UV-induced dermal ROS; assay: In vivo sensing of UV irradiation-induced ROS in rat skin; set-up: species or system Sprague-Dawley rats; settings: 30 minutes after application, t=0 h and t=24 h after irradiation
Description: Male Sprague-Dawley rats (Charles River, St-Constant, QC) with weight ranging from 300-350 g at delivery were used for this study. Following arrival in the animal facility, all animals were subjected to a general health evaluation. An acclimation period of 5 days was allowed before the beginning of the study. Each animal cage was equipped with a manual water distribution system. A standard certified commercial rodent diet was provided ad libitum. Tap water was provided ad libitum at all times. Rats dorsal skin was shaved and depilated under isoflurane-induced anesthesia using an electric razor and depilating cream (Nair, Church & Dwight) the day before experimentation. Rats were extensively rinsed to prevent burning with residual depilating agent. For irradiation, animals were anesthetized with isoflurane and placed under the UV irradiating lamp (Daavlin 24″ research unit×305/350-6/6) equipped with a UV power meter to manually validate constant dosimetry. Irradiated animal received 700 mJ·cm^2 of UVB. […] Three MN arrays were applied at the same time on different sites of the dorsal skin. MNs were removed, and the application sites were scanned for fluorescence using the portable fluorescence reader. On the first day, sites were read after 0.5, 1, 4, and 6 h. On the second day, new MNs were applied and read immediately or 6 h after application. […]

Compound	signal retained when exposed to ROS [1]	diffusion in the skin [2]	Cy7.5-PEG fluorescence intensity over time [3]	fluorescence at Cy7.5-PEG wavelengths in the presence of ROS [4]	Cy7.5-PEG fluorescence intensity after application in vivo [5]
CN1/C(=C/C=C/C2=[N+](CCCCCC(=O)O)c3ccccc3C2(C)C)C(C)(C)c2ccccc21 [Cy3, Cyanine-3]	40%	minimal diffusion			
Cyanine-7.5-PEG [Cy7.5-PEG]			did not decrease	unaffected	no significant decrease
CN1/C(=C/C=C/C=C/C2=[N+](CCCCCC(=O)O)c3ccccc3C2(C)C)C(C)(C)c2ccccc21 [Cy5, Cyanine-5]		minimal diffusion			

Reference: US20240131198A1, “RATIOMETRIC BIOSENSOR TATTOOS AND USE THEREOF FOR REAL TIME MEASUREMENTS” (priority 2022, published 2024)
